The text below walks through data of US8846699B2, “Quinazoline derivatives as a multiplex inhibitor and method for the preparation thereof” (Hanmi Pharm. Co., Ltd., priority 2005, dated 2014).

The subject of experiment [1] is skin cancer cell line, A431. The experiment can be described thus: Inhibitory effect on growth of cancer cell line A431, SRB. In kind it is cell-based. The settings on record: overexpressed EGFR1 (HER-1). In a few lines:
(§1)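 Growth inhibition was measured by sulforhodamine-B staining (absorbance 570 nm) of TCA-fixed cells after 72 h compound exposure at 37 °C, 5% CO2. Test concentrations ran from 10 μM in 10-fold steps to 10^−4, with DMSO below 1%, in 10% FBS DMEM.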

In another experiment the target is EGFR1 (HER-1) (Homo sapiens (Human), UniProt P00533). The experiment can be described thus: EGFR1 (HER-1) enzyme assay, fluorescence polarization. Format: biochemical. The settings on record: 100 μM ATP, poly(Glu, Tyr) substrate. Background: Fluorescence polarisation rises when a labelled molecule tumbles more slowly, as on binding a larger partner.
EGFR1 (HER-1), sequence (P00533 25-1210): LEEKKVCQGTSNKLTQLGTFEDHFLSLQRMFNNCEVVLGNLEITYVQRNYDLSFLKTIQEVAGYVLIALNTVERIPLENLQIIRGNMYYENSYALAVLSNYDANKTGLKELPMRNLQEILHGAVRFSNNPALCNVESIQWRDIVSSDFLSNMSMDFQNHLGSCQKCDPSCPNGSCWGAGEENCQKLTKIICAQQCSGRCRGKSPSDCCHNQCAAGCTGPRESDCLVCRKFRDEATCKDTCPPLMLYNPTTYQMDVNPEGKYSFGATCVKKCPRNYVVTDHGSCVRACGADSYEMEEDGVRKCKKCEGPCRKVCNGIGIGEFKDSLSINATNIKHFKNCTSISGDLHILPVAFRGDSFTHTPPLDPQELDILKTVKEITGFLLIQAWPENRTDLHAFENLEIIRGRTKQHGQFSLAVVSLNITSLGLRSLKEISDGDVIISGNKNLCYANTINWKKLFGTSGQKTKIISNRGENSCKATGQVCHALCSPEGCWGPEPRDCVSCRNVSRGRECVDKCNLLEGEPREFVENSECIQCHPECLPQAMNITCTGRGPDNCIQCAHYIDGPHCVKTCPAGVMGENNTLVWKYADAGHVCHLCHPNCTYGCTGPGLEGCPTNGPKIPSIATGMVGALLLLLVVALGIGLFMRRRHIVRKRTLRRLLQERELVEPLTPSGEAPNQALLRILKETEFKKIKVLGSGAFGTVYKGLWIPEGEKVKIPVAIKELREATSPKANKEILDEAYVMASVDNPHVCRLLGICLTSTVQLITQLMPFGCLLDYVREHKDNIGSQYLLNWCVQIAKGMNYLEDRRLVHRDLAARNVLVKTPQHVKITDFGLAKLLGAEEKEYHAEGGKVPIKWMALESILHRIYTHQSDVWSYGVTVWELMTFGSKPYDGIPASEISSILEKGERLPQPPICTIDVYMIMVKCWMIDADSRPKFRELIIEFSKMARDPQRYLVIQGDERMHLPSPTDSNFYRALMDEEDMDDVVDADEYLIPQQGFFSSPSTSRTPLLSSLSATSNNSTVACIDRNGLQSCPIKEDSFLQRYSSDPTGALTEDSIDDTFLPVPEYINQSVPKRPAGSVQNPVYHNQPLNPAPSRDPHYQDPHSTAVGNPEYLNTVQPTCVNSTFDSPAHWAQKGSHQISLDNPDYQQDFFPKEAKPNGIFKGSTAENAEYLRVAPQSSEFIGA
The test system of experiment [2] is Human Umbilical Vein Endothelial Cell (HUVEC). The experiment can be described thus: Inhibitory effect on growth of human umbilical vein endothelial cell (HUVEC), MTS. The settings on record: 10 ng/ml VEGF, absorbance 490 nm. In kind it is cell-based.
A further experiment concerns the target VEGFR2 (KDR) (Homo sapiens (Human), UniProt P35968). The experiment can be described thus: VEGFR2 (KDR) enzyme assay, fluorescence polarization. Format: biochemical. The settings on record: 5 μM ATP, poly(Glu, Tyr) substrate. In a few lines: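 Buffer: 20 mM HEPES pH 7.4 with 5 mM MgCl2, 2 mM MnCl2 and 50 μM Na3VO4. Compound (0.0001–10 μM) was premixed 10 min with VEGFR2 (200 ng/10 μl), then poly(Glu,Tyr) substrate (10 ng/ml) and 5 μM ATP were added for 1 h at room temperature. EDTA-quenched samples were read by FP after 30 min with antibody and tracer.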

Experiment [3] concerns colon and rectal cancer cell line, SW-620. The experiment can be described thus: Inhibitory effect on growth of cancer cell line SW-620, SRB. Format: cell-based. The settings on record: not having overexpressed EGFR and EGFR2. In a few lines:
as §1

Experiment [4] relates to breast cancer cell line, SK-Br3. The experiment can be described thus: Inhibitory effect on growth of cancer cell line SK-Br3, SRB. In kind it is cell-based. The following applies: overexpressed EGFR2 (HER-2). In a few lines:
as §1

Structures are written as SMILES. pIC50: −log10 of the molar value.

VEGFR2 (KDR), sequence (P35968 20-1356): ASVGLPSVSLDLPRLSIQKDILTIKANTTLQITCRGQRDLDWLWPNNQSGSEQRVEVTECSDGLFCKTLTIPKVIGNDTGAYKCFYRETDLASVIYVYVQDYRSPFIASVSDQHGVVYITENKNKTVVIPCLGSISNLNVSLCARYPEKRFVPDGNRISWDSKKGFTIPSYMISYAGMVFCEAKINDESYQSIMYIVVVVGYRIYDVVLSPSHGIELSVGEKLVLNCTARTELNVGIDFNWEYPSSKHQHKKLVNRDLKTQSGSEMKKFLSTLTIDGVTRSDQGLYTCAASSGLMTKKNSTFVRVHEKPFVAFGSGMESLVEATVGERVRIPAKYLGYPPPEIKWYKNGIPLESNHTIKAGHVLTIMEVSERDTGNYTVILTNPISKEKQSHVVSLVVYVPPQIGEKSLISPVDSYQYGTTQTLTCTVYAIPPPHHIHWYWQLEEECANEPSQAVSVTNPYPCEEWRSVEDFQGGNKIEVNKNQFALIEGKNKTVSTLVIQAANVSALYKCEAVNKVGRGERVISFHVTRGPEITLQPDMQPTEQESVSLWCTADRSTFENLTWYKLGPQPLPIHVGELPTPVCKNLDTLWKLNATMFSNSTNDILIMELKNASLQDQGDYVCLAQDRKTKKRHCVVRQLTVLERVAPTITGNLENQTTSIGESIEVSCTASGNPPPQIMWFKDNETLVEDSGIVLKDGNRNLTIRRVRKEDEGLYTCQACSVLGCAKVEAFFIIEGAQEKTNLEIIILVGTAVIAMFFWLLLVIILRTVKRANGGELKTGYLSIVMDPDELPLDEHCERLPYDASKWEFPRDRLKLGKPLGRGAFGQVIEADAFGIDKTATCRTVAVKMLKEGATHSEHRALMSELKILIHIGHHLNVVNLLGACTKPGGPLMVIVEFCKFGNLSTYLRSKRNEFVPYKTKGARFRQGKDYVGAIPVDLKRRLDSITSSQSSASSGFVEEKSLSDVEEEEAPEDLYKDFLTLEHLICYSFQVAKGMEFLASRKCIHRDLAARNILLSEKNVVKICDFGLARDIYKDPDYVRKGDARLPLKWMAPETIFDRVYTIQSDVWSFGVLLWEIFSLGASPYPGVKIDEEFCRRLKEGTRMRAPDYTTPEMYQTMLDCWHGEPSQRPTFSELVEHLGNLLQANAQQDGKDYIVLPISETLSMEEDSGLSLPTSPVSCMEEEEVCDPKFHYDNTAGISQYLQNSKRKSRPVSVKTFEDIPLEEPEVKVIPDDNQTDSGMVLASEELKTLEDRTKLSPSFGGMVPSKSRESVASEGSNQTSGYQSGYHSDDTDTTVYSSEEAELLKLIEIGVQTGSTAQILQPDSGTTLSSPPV

Consider `C=CC(=O)Nc1cc2c(Nc3cc(Cl)c(Cl)cc3Cl)ncnc2cc1OCCNC(C)=O` [Example 122, N-[7-(2-acetylamino-ethoxy)-4-(2,4,5-trichloro-phenylamino)-quinazolin-6-yl]-acrylamide], for which the pIC50 (as a rule, the IC50 on a negative log10 scale, so that one unit is a factor of ten) was 5.99 in experiment [1] (Homo sapiens, A-431, 72 h); 6.06 on EGFR1 (HER-1); 6.04 in experiment [2] (Homo sapiens, 96 h); 6.10 against VEGFR2 (KDR); 5.63 in experiment [3] (Homo sapiens, 72 h); 5.99 in experiment [4] (Homo sapiens, SK-BR-3, 72 h).

As to `C=CC(=O)Nc1cc2c(Nc3ccc(Br)cc3F)ncnc2cc1OCCNC(=O)CCO` [Example 67, N-{4-(4-bromo-2-fluoro-phenylamino)-7-[2-(3-hydroxy-propionylamino)-ethoxy]-quinazolin-6-yl}-acrylamide], the negative-log IC50 (pIC50) in experiment [1] (Homo sapiens, A-431, 72 h) was 7.14; against EGFR1 (HER-1), 7.05; in experiment [2] (Homo sapiens, 96 h) it was 6.45; against VEGFR2 (KDR), 6.67; in experiment [3] (Homo sapiens, 72 h) it was 5.65; in experiment [4] (Homo sapiens, SK-BR-3, 72 h), 6.01.

For the compound `C=CC(=O)Nc1cc2c(Nc3ccc(Br)cc3F)ncnc2cc1OCCNC(=O)CN1CCCC1` [Example 107, N-{4-(4-bromo-2-fluoro-phenylamino)-7-[2-(2-pyrrolidin-1-yl-acetylamino)-ethoxy]-quinazolin-6-yl}-acrylamide], the pIC50 is 7.32 in experiment [1] (Homo sapiens, A-431, 72 h); 7.35 against EGFR1 (HER-1); 6.54 in experiment [2] (Homo sapiens, 96 h); 6.70 against VEGFR2 (KDR); 5.44 in experiment [3] (Homo sapiens, 72 h); 6.92 in experiment [4] (Homo sapiens, SK-BR-3, 72 h).

For `C=CC(=O)Nc1cc2c(Nc3ccc(Br)c(Cl)c3F)ncnc2cc1OCCNC(=O)CCOC` [Example 150, N-{4-(4-bromo-3-chloro-2-fluoro-phenylamino)-7-[2-(3-methoxy-propionylamino)-ethoxy]-quinazolin-6-yl}-acrylamide], the pIC50 in experiment [1] (Homo sapiens, A-431, 72 h) is 7.66; on EGFR1 (HER-1) it was 7.68; in experiment [2] (Homo sapiens, 96 h) it was 6.45; at VEGFR2 (KDR), 6.56; in experiment [3] (Homo sapiens, 72 h), 5.02; in experiment [4] (Homo sapiens, SK-BR-3, 72 h) it was 6.62.

For `C=CC(=O)Nc1cc2c(Nc3ccc(Br)cc3F)ncnc2cc1OCCCNC(=O)C(F)(F)F` [Example 14, N-{4-(4-bromo-2-fluoro-phenylamino)-7-[3-(2,2,2-trifluoro-acetylamino)-propoxy]-quinazolin-6-yl}-acrylamide], the pIC50 in experiment [1] (Homo sapiens, A-431, 72 h) is 7.01; on EGFR1 (HER-1), 7.23; in experiment [2] (Homo sapiens, 96 h) it was 6.54; against VEGFR2 (KDR) it was 6.23; in experiment [3] (Homo sapiens, 72 h) it was 5.00; in experiment [4] (Homo sapiens, SK-BR-3, 72 h) it was 7.24.

For `C=CC(=O)Nc1cc2c(Nc3ccc(Br)cc3F)ncnc2cc1OCCNC(=O)CCOC` [Example 64, N-{4-(4-bromo-2-fluoro-phenylamino)-7-[2-(3-methoxy-propionylamino)-ethoxy]-quinazolin-6-yl}-acrylamide], the pIC50 in experiment [1] (Homo sapiens, A-431, 72 h) is 7.14; against EGFR1 (HER-1), 7.15; in experiment [2] (Homo sapiens, 96 h), 6.53; against VEGFR2 (KDR), 6.64; in experiment [3] (Homo sapiens, 72 h) it was 5.34; in experiment [4] (Homo sapiens, SK-BR-3, 72 h), 6.44.

For `C=CC(=O)Nc1cc2c(Nc3ccc(Br)c(F)c3)ncnc2cc1OCCNC(=O)CN(C)C` [Example 79, N-4-(4-bromo-3-fluoro-phenylamino)-7-[2-(2-dimethylamino-acetylamino)-ethoxy]-quinazolin-6-yl-acrylamide], the pIC50 in experiment [1] (72 hours) is 7.08; at EGFR1 (HER-1) it was 7.11; in experiment [2] (96 hours) it was 6.14; at VEGFR2 (KDR), 5.84; in experiment [3] (72 hours), 5.00; in experiment [4] (72 hours), 6.50.

Regarding `C=CC(=O)Nc1cc2c(Nc3ccc(Br)cc3F)ncnc2cc1OCCNC(=O)C(F)F` [Example 22, N-{4-(4-bromo-2-fluoro-phenylamino)-7-[2-(2,2-difluoro-acetylamino)-ethoxy]-quinazolin-6-yl}-acrylamide], the pIC50 in experiment [1] (Homo sapiens, A-431, 72 h) is 7.35; against EGFR1 (HER-1), 8.30; in experiment [2] (Homo sapiens, 96 h), 6.02; against VEGFR2 (KDR) it was 6.28; in experiment [3] (Homo sapiens, 72 h), 5.01; in experiment [4] (Homo sapiens, SK-BR-3, 72 h) it was 7.04.

Take `C=CC(=O)Nc1cc2c(Nc3ccc(Br)cc3F)ncnc2cc1OCCN(C)C(C)=O` [Example 42, N-[7-[2-(acetyl-methyl-amino)-ethoxy]-4-(4-bromo-2-fluoro-phenylamino)-quinazolin-6-yl]-acrylamide]: the pIC50 was 7.20 in experiment [1] (Homo sapiens, A-431, 72 h); 7.23 at EGFR1 (HER-1); 6.10 in experiment [2] (Homo sapiens, 96 h); 6.16 against VEGFR2 (KDR); 5.02 in experiment [3] (Homo sapiens, 72 h); 6.85 in experiment [4] (Homo sapiens, SK-BR-3, 72 h).

On to `C=CC(=O)Nc1cc2c(Nc3ccc(Br)cc3F)ncnc2cc1OCCNC(=O)CSC` [Example 46, N-{4-(4-bromo-2-fluoro-phenylamino)-7-[2-(2-methylsulfanyl-acetylamino)-ethoxy]-quinazolin-6-yl}-acrylamide], for which the pIC50 in experiment [1] (Homo sapiens, A-431, 72 h) is 7.46; at EGFR1 (HER-1), 7.41; in experiment [2] (Homo sapiens, 96 h), 6.18; on VEGFR2 (KDR), 6.20; in experiment [3] (Homo sapiens, 72 h) it was 5.12; in experiment [4] (Homo sapiens, SK-BR-3, 72 h) it was 6.70.

As for `C=CC(=O)Nc1cc2c(Nc3ccc(Br)cc3F)ncnc2cc1OCCCCNC(C)=O` [Example 20, N-[7-(4-acetylamino-butoxy)-4-(4-bromo-2-fluoro-phenylamino)-quinazolin-6-yl]-acrylamide], the pIC50 is 7.35 in experiment [1] (Homo sapiens, A-431, 72 h); 8.00 against EGFR1 (HER-1); 6.17 in experiment [2] (Homo sapiens, 96 h); 6.26 on VEGFR2 (KDR); 5.00 in experiment [3] (Homo sapiens, 72 h); 5.96 in experiment [4] (Homo sapiens, SK-BR-3, 72 h).

As to `C=CC(=O)Nc1cc2c(Nc3ccc(Br)cc3F)ncnc2cc1OCCCNC(=O)CS(C)(=O)=O` [Example 15, N-{4-(4-bromo-2-fluoro-phenylamino)-7-[3-(2-methanesulfonyl-acetylamino)-propoxy]-quinazolin-6-yl}-acrylamide], the pIC50 was 6.93 in experiment [1] (Homo sapiens, A-431, 72 h); 7.17 on EGFR1 (HER-1); 6.82 in experiment [2] (Homo sapiens, 96 h); 6.48 against VEGFR2 (KDR); 5.02 in experiment [3] (Homo sapiens, 72 h); 6.13 in experiment [4] (Homo sapiens, SK-BR-3, 72 h).

Turning to `C=CC(=O)Nc1cc2c(Nc3ccc(Br)cc3F)ncnc2cc1OCC1CCN(C(=O)CN(C)C)CC1` [Example 10, N-{4-(4-bromo-2-fluoro-phenylamino)-7-[1-(2-dimethylamino-acetyl)-piperidin-4-ylmethoxy]-quinazolin-6-yl}-acrylamide], the pIC50 is 8.10 in experiment [1] (Homo sapiens, A-431, 72 h); 8.22 against EGFR1 (HER-1); 7.31 in experiment [2] (Homo sapiens, 96 h); 7.26 against VEGFR2 (KDR); 5.56 in experiment [3] (Homo sapiens, 72 h); 6.48 in experiment [4] (Homo sapiens, SK-BR-3, 72 h).

For `C=CC(=O)Nc1cc2c(Nc3cccc(Cl)c3F)ncnc2cc1OCCNC(=O)CN(C)C` [Example 117, N-[4-(3-chloro-2-fluoro-phenylamino)-7-{2-[2-(dimethylamino)-acetamido]-ethoxy}quinazolin-6-yl]-acrylamide], the pIC50 in experiment [1] (Homo sapiens, A-431, 72 h) was 5.91; at EGFR1 (HER-1), 6.03; in experiment [2] (Homo sapiens, 96 h), 6.00; on VEGFR2 (KDR) it was 6.02; in experiment [3] (Homo sapiens, 72 h) it was 5.00; in experiment [4] (Homo sapiens, SK-BR-3, 72 h), 5.90.

Consider `C=CC(=O)Nc1cc2c(Nc3ccc(Br)cc3F)ncnc2cc1OCCNC(N)=O` [Example 24, N-[4-(4-bromo-2-fluoro-phenylamino)-7-(2-ureido-ethoxy)-quinazolin-6-yl]-acrylamide], for which the negative-log IC50 (pIC50) in experiment [1] (Homo sapiens, A-431, 72 h) was 7.40; at EGFR1 (HER-1) it was 8.40; in experiment [2] (Homo sapiens, 96 h) it was 7.05; on VEGFR2 (KDR), 6.60; in experiment [3] (Homo sapiens, 72 h) it was 5.12; in experiment [4] (Homo sapiens, SK-BR-3, 72 h), 7.12.

Take `C=CC(=O)Nc1cc2c(Nc3ccc(Br)cc3F)ncnc2cc1OCCNC(=O)CCN1CCCCC1` [Example 104, N-{4-(4-bromo-2-fluoro-phenylamino)-7-[2-(3-piperidin-1-yl-propionylamino)-ethoxy]-quinazolin-6-yl}-acrylamide]: the pIC50 in experiment [1] (Homo sapiens, A-431, 72 h) was 7.80; against EGFR1 (HER-1) it was 7.85; in experiment [2] (Homo sapiens, 96 h), 6.07; at VEGFR2 (KDR) it was 6.02; in experiment [3] (Homo sapiens, 72 h) it was 5.28; in experiment [4] (Homo sapiens, SK-BR-3, 72 h) it was 7.03.

As for `C=CC(=O)Nc1cc2c(Nc3ccc(Br)cc3F)ncnc2cc1OCCNC(=O)N1CCN(C(C)=O)CC1` [Example 95, 4-acetyl-piperazine-1-carboxylic acid {2-[6-acryloylamino-4-(4-bromo-2-fluoro-phenylamino)-quinazolin-7-yloxy]-ethyl}-amide], the pIC50 in experiment [1] (Homo sapiens, A-431, 72 h) was 7.07; against EGFR1 (HER-1), 7.12; in experiment [2] (Homo sapiens, 96 h) it was 6.10; on VEGFR2 (KDR), 6.11; in experiment [3] (Homo sapiens, 72 h), 5.00; in experiment [4] (Homo sapiens, SK-BR-3, 72 h) it was 6.63.

As to `C=CC(=O)Nc1cc2c(Nc3ccc(Br)c(Cl)c3F)ncnc2cc1OC[C@@H](C)NC(=O)CN(C)C` [Example 164, (R)—N-4-(4-bromo-3-chloro-2-fluoro-phenylamino)-7-[2-(2-dimethylamino-acetylamino)-propoxy]-quinazolin-6-yl-acrylamide], the pIC50 in experiment [1] (72 hours) is 7.72; against EGFR1 (HER-1), 7.85; in experiment [2] (96 hours), 6.12; against VEGFR2 (KDR), 6.15; in experiment [3] (72 hours), 5.05; in experiment [4] (72 hours) it was 7.44.
